Our source for the inhibition and IC50 values is US9029389B2 (Institut Pasteur Korea, priority 2011, dated 2015).

Some results are limits rather than exact numbers.

The target of one assay is T1, Human 5-lipoxygenase (Homo sapiens, UniProt P09917).
T1 construct: purchased Cayman 60402; host or cells: insect cells
T1 sequence (P09917 1-674): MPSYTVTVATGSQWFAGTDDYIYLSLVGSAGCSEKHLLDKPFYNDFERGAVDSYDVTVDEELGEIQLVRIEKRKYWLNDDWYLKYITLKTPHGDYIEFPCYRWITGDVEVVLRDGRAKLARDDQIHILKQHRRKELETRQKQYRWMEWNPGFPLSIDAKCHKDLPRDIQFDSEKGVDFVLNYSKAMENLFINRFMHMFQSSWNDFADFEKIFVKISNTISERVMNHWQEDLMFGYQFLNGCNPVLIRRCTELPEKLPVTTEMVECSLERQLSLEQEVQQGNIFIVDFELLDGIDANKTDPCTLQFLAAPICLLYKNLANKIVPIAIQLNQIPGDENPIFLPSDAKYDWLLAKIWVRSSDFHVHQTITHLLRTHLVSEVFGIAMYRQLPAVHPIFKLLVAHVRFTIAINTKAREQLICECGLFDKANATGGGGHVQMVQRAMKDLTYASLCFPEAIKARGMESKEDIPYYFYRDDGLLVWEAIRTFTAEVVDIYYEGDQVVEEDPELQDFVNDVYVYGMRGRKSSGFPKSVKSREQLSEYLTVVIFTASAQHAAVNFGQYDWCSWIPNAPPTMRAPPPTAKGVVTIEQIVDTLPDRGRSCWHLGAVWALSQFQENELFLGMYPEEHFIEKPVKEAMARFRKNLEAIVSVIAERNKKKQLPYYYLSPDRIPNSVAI
The assay is described as follows: Activity of compounds against 5-LO enzyme (LTB4 measurement and/or fluorescence method). It counts as biochemical. As to conditions: 5-LO, single concentration of 10 uM in duplicate. The method, then:
The activity of compounds against 5-LO were determined by measuring LTB4 (leukotriene B4) levels and/or by a fluorescence method. Both approaches are outlined in more detail below;
Human 5-lipoxygenase (Cayman, Cat#60402) produced in insect cells was pre-incubated with compound for 15 min at RT in incubation buffer (50 mM Tris-Cl, pH 7.4, 2 mM CaCl2, 0.1 mM ATP, 1% DMSO). The enzymatic reaction was started by adding arachidonic acid to a final concentration of 3 uM. After 5 min of incubation at 37° C., the reaction was stopped by heatinactivation at 80° C. for 5 min. LTB4 levels were quantified by using LTB4 EIA kit (Cayman, Cat#520111) as instructed and/or LTB4 levelswere measured with LC/MS/MS using Quattro Premier™ XE tandem quadrupole mass spectrometer equipped with Acquity UPLC system (Waters, Milford, Mass.). The method was slightly modified as reported previously (Zweifel et al., 2008, Willey et al., 2008, Chappell et al, 2011). Briefly, chromatographic separation was carried out with Acquity UPLC BEH Shield RP18 Column (2.1 mm×50 mm, 1.7 μm particle size, Waters, Milford, Mass.). Sample injection volume was 10 μl, the column temperature was 35° C., the mobile phase A consisted of water with 0.1% formic acid and the mobile phase B consisted of acetonitrile with 0.1% formic acid. Flow rate was 0.4 mL/min and the gradient condition was as follows.
Relative quantification of LTB4 and LTB4-d4 (Internal Standard) was done using multi reaction monitoring (MRM) of the transitions of m/z 335→195 for LTB4, 339→197 for LTB4-d4 in electrospray ionization (ESI) negative mode. Desolvation temperature was 400° C., source temperature was 130° C. Capillary voltage, cone voltage, and collision voltage were 3.5 kV, 30V, and 20 eV, respectively. Nitrogen was used for desolvation (750 L/h) and cone (50 L/h) gas. Argon was used for collision gas (0.22 ml/min). The dwell time was 10 ms.
Besides the two methods quantifying LTB4 level, a fluorescence assay measuring 5-HpETE was introduced for high-throughput screening in a 384 well microplate format (Pufahl et al., 2007). For nonspecific ester cleavage of the acetate groups in H2DCFDA, the insect cell lysate expressing human 5-LO (Cayman Cat#60402) was incubated with H2DCFDA (50 mM Tris-Cl, pH 7.5, 2 mM CaCl2, 20 uM H2DCFDA, 500 mU 5-LO per reaction) for 5 minutes. Compound and enzyme mixture were pre-incubated for 5 minutes, and the enzymatic reaction was initiated by addition of ATP and arachidonic acid to a final concentration of 100 uM and 3 uM, respectively. After 5 minutes of incubation, the fluorescence was measured using Spectramax M5 (Molecular Device, Ex/Em=485 nm/530 nm). All steps were carried out at room temperature.
A total of 378 compounds were initially tested at a single concentration of 10 uM in duplicate with the results summarized in Table 1. From these 378 compounds, 53 compounds plus an additional 25 were selected for confirmation of activity by 6 or 11 point dose response in duplicate with the corresponding IC50 values outlined in Table 2.
As a reminder, the inhibition is the relative decrease from the control value, in per cent. The low end stands for a weak effect, the high end for a strong effect. Molecule `CCc1nc2ccccn2c1C(=O)NCc1ccc(OC(C)C)cc1` [compound 53, 2-Ethyl-N-(4-isopropoxybenzyl)imidazo[1,2-a]pyridine-3-carboxamide] came in with an inhibition at 10 µM below 40%.
Same read-out and setting: then `CCc1nc2ccccn2c1C(=O)NCc1ccc(OCC(C)C)cc1` [compound 54, 2-Ethyl-N-(4-isobutoxybenzyl)imidazo[1,2-a]pyridine-3-carboxamide], with below 40%; and `CCc1nc2ccc(Cl)cn2c1C(=O)NCc1ccc(OC(F)(F)F)cc1` [compound 55], with 40 to 69%.
The molecule `CCc1nc2cc(Cl)ccn2c1C(=O)NCc1ccc(-c2ccc(F)cc2)cc1` [compound 56, 7-Chloro-2-ethyl-N-((4′-fluorobiphenyl-4-yl)methyl)imidazo[1,2-a]pyridine-3-carboxamide] gave an inhibition at 10 µM below 40%.
On to `CCc1nc2ccc(C)cn2c1C(=O)NCc1ccc(-c2ccccc2)cc1` [compound 57, N-(Biphenyl-4-ylmethyl)-2-ethyl-6-methylimidazo[1,2-a]pyridine-3-carboxamide], for which the inhibition at 10 µM lay within 40 to 69%.
The molecule `CCc1nc2ccc(C)cn2c1C(=O)NCc1ccc(Oc2ccccc2)cc1` [compound 58, 2-Ethyl-6-methyl-N-(4-phenoxybenzyl)imidazo[1,2-a]pyridine-3-carboxamide] had an inhibition at 10 µM above 69%.
Still for that read-out and setting: the figure for `CCc1nc2ccc(C)cn2c1C(=O)NCc1ccc(OC(F)(F)F)cc1` [compound 59, 2-Ethyl-6-methyl-N-(4-(trifluoromethoxy)benzyl)imidazo[1,2-a]pyridine-3-carboxamide] is 40 to 69%; for `CCc1nc2ccc(C)cn2c1C(=O)NCc1ccc2ccn(C)c2c1` [compound 60, 2-Ethyl-6-methyl-N-((1-methyl-1H-indol-6-yl)methyl)imidazo[1,2-a]pyridine-3-carboxamide] it is 40 to 69%.
With `CCc1nc2ccc(Cl)cn2c1C(=O)NCc1ccc(Oc2ccccc2)cc1` [compound 62], the inhibition at 10 µM is below 40%.
As to `CCc1nc2ccc(Cl)cn2c1C(=O)NCc1ccc(C(C)(C)C)cc1` [compound 63], the inhibition at 10 µM lay in the range of 40 to 69%.
In the case of `CCc1nc2ccc(Cl)cn2c1C(=O)NCc1ccc(N2CCOCC2)cc1` [compound 64], the inhibition at 10 µM is below 40%.
Still for that read-out and setting: then `CCc1nc2ccc(Cl)cn2c1C(=O)NCc1ccc(OC(C)C)cc1` [compound 65], with below 40%.
Molecule `CCc1nc2ccc(Cl)cn2c1C(=O)NCc1ccc(OCC(C)C)cc1` [compound 66] came in with an inhibition at 10 µM below 40%.
With `CCc1nc2ccc(Cl)cn2c1C(=O)NCc1ccc2c(ccn2C)c1` [compound 67], the inhibition at 10 µM was below 40%.
On to `CCc1nc2ccc(Cl)cn2c1C(=O)NCc1ccc2ccn(C)c2c1` [compound 68], for which the inhibition at 10 µM was below 40%.
Molecule `CCc1nc2ccc([N+](=O)[O-])cn2c1C(=O)NCc1ccc(OC(F)(F)F)cc1` [compound 69, 2-Ethyl-6-nitro-N-(4-(trifluoromethoxy)benzyl)imidazo[1,2-a]pyridine-3-carboxamide] displayed an inhibition at 10 µM of 40 to 69%.
For `CCc1nc2cnccn2c1C(=O)NCc1ccc(-c2ccc(Cl)cc2)cc1` [compound 71, N-((4′-Chlorobiphenyl-4-yl)methyl)-2-ethylimidazo[1,2-a]pyrazine-3-carboxamide], the inhibition at 10 µM is below 40%.
The molecule `CCc1nc2ccc(Cl)cn2c1C(=O)NCc1ccc(-c2ccccc2Cl)cc1` [compound 72, 6-Chloro-N-((2′-chlorobiphenyl-4-yl)methyl)-2-ethylimidazo[1,2-a]pyridine-3-carboxamide] registered an inhibition at 10 µM of 40 to 69%.
`CCc1nc2ccc(Cl)cn2c1C(=O)NCc1ccc(-c2ccc(Cl)cc2)cc1` [compound 73, 6-Chloro-N-((4′-chlorobiphenyl-4-yl)methyl)-2-ethylimidazo[1,2-a]pyridine-3-carboxamide] registered an inhibition at 10 µM below 40%.
Same read-out and setting: then `CCc1nc2ccc(Cl)cn2c1C(=O)NCc1ccc(N2CCCCC2)cc1` [compound 74, 6-Chloro-2-ethyl-N-(4-(piperidin-1-yl)benzyl)imidazo[1,2-a]pyridine-3-carboxamide], with below 40%; and `CCc1nc2ccc(Cl)cn2c1C(=O)NCc1ccc(-c2ccccc2C)cc1` [compound 75, 6-Chloro-2-ethyl-N-((2′-methylbiphenyl-4-yl)methyl)imidazo[1,2-a]pyridine-3-carboxamide], with 40 to 69%.
`CCc1nc2ccc(Cl)cn2c1C(=O)NCc1ccc(-c2cccc(C)c2)cc1` [compound 76, 6-Chloro-2-ethyl-N-((3′-methylbiphenyl-4-yl)methyl)imidazo[1,2-a]pyridine-3-carboxamide] returned an inhibition at 10 µM of 40 to 69%.
The same measure, in the same setting: the figure for `CCc1nc2ccc(Cl)cn2c1C(=O)NCc1ccc(-c2ccc(C)cc2)cc1` [compound 77, 6-Chloro-2-ethyl-N-((4′-methylbiphenyl-4-yl)methyl)imidazo[1,2-a]pyridine-3-carboxamide] is below 40%.
Still for that read-out and setting: then `CCc1nc2ccc(Cl)cn2c1C(=O)NCc1ccc(Cl)cc1` [compound 78, 6-Chloro-N-(4-chlorobenzyl)-2-ethylimidazo[1,2-a]pyridine-3-carboxamide], with below 40%; and `CCc1nc2ccc(Cl)cn2c1C(=O)NCc1ccc2ccccc2c1` [compound 79, 6-Chloro-2-ethyl-N-(naphthalen-2-ylmethyl)imidazo[1,2-a]pyridine-3-carboxamide], with below 40%.
`O=C(NCc1ccc(-c2ccccc2)cc1)c1c(C(F)(F)F)nc2ccc(Cl)cn12` [compound 80, N-(Biphenyl-4-ylmethyl)-6-chloro-2-(trifluoromethyl)imidazo[1,2-a]pyridine-3-carboxamide] gave an inhibition at 10 µM below 40%.
Consider `CC(C)(C)c1ccc(CNC(=O)c2c(C(F)(F)F)nc3ccc(Cl)cn23)cc1` [compound 81, N-(4-tert-Butylbenzyl)-6-chloro-2-(trifluoromethyl)imidazo[1,2-a]pyridine-3-carboxamide], for which the inhibition at 10 µM is below 40%.
`CCc1nc2cc(Cl)ccn2c1C(=O)NCc1ccc(-c2ccccc2Cl)cc1` [compound 82, 7-Chloro-N-((2′-chlorobiphenyl-4-yl)methyl)-2-ethylimidazo[1,2-a]pyridine-3-carboxamide]: the inhibition at 10 µM was in the range of 40 to 69%.
For `CCc1nc2cc(Cl)ccn2c1C(=O)NCc1ccc(-c2ccc(Cl)cc2)cc1` [compound 83, 7-Chloro-N-((4′-chlorobiphenyl-4-yl)methyl)-2-ethyl-2-ethlimidazo[1,2-a]pyridine-3-carboxamide], the inhibition at 10 µM lay within 40 to 69%.
`CCc1nc2cc(Cl)ccn2c1C(=O)NCc1ccc(Cl)cc1` [compound 84, 7-Chloro-N-(4-chlorobenzyl)-2-ethylimidazo[1,2-a]pyridine-3-carboxamide]: the inhibition at 10 µM lay in the range of 40 to 69%.

The same assay, now with this note: 6 or 11 point dose response in duplicate.
As usually defined, the IC50 is the point on the concentration scale where inhibition reaches its midpoint. On to `CCc1nc2ccc(Cl)cn2c1C(=O)NCc1ccc(OC(F)(F)F)cc1` [compound 55], for which the IC50 lay in the range of 1 to 20 µM.
For the molecule `CCc1nc2ccc(C)cn2c1C(=O)NCc1ccc(Oc2ccccc2)cc1` [compound 58, 2-Ethyl-6-methyl-N-(4-phenoxybenzyl)imidazo[1,2-a]pyridine-3-carboxamide], the IC50 fell in the range of 1 to 20 µM.
In turn, `CCc1nc2ccc(Cl)cn2c1C(=O)NCc1ccc(-c2ccccc2C)cc1` [compound 75, 6-Chloro-2-ethyl-N-((2′-methylbiphenyl-4-yl)methyl)imidazo[1,2-a]pyridine-3-carboxamide] yielded an IC50 of 1 to 20 µM.
